This is an account of results in US7423010B2, “Nonporous microparticle-prodrug conjugates for treatment of infection” (Oregon Health & Science University, priority 1994, dated 2008).

The test system of the assay is murine NIH 3T3 cells. Kind of assay: Growth inhibitory effects of prodrugs on NIH 3T3 cells in culture, with or without esterase-containing brain homogenate. It is filed as cell-based. The protocol: The antifolate drug methotrexate was conjugated with a variety of polar lipid carriers via specific linker moieties having specific reactive functional groups. […] The compounds were tested for their growth inhibitory effects on murine NIH 3T3 cells growing in cell culture. […] […] In a second set of experiments was included in the growth media an amount of a brain homogenate containing an enzymatically-active esterase.

Turning to `CN(Cc1cnc2nc(N)nc(N)c2n1)c1ccc(C(=O)N[C@@H](CCC(=O)O)C(=O)O)cc1` [Mtx, methotrexate], the “# cells/plate” value is, setting by setting: (drug/FBS, cells incubated 1 hour at 37° C., cell growth and survival determined 70 hours after drug addition) 0.16 × 10^6 cells/plate; (drug/FBS, cells incubated 2 hours at 37° C., cell growth and survival determined 72 hours after drug addition) 0.13 × 10^6 cells/plate; (drug/brain extract, cells incubated 1 hour at 37° C., cell growth and survival determined 70 hours after drug addition) 0.09 × 10^6 cells/plate; (drug/brain extract, cells incubated 2 hours at 37° C., cell growth and survival determined 72 hours after drug addition) 0.06 × 10^6 cells/plate.
